Where a SMILES comes first, the peptide text is derived from it. The star is where a group is joined. Cbz = O=C(OCc1ccccc1)*; CH2F = FC*
Columns and labels:
Format in all cases: in vivo, mouse
TNF-α = TNF-α level in the retina after ON injury (quantitative real-time RT-PCR); conditions: one day after ON injury; intravitreal Z-VAD (300 uM) and/or Nec-1 (400 uM)
Description: Total RNA extraction, cDNA synthesis and PCR amplification have been performed as previously reported (Kayama et al., (2010) OPHTHALMIC RES 43:79-91). A real-time PCR assay was performed with Prism 7700 Sequence Detection System (Applied Biosystems, Foster City, Calif.). The primers are shown below in Table 1.
For relative comparison of each gene, the Ct value of real-time PCR data was analyzed with the ΔΔCt method and normalized to an endogenous control ([…].
To investigate whether TNF-α is involved in RGC cell death in mice subjected to optic nerve (ON) injury (induced by physical injury to the optic nerve), TNF-α level in the retina was measured using quantitative real-time RT-PCR. As depicted in FIG. 2A, at one day after ON injury, TNF-α mRNA levels increased almost 10- to 13-fold relative to non-injured mice.

[1] = system: retinal ganglion cells (RGCs); assay: Brn3b immunohistochemistry (viable RGCs) after ON injury; conditions: RIP3−/− mice; seven days after ON injury
From the text: Two mouse models of RGC death were utilized: optic nerve (ON) injury and N-methyl-D-aspartate (NMDA) retinal excitotoxicity. ON injury leads to RGC death as a result of primary damage to the axons, with its ensuing disruption of retrograde axonal transport (Libby et al., (2005) PLOS GENET 1:17-26) and is used as an RGC death model. In the ON injury model, mice were anesthetized and subjected to severe crush injury at 1-2 mm distance from the eyeball for 15 seconds using cross-action forceps taking special care not to interfere with the blood supply (Levkovitch-Verbin, (2004) EYE 18:1066-1074). Injured mice were randomly divided into 4 groups for treatment: vehicle group (0.5% DMSO and 0.8% cyclodextrin in PBS, n=6), ZVAD group (300 n=6), Nec-1 group (4 mM, n=6), and ZVAD plus Nec-1 group (n=6). Soon after injury, each group received an intravitreal injection (2 μl) with the respective compounds. In the NMDA retinal excitotoxicity model, NMDA (2 μl of a 0.1M stock; Sigma-Aldrich) was injected intravitreously in combination with ZVAD, Nec-1, or ZVAD plus Nec-1 and mice were separated into the aforementioned 4 groups. […]

[2] = system: retinal ganglion cells (RGCs); assay: Propidium iodide (PI) staining of necrotic cells in GCL after ON injury; conditions: one day after ON injury, wild-type mice
From the text: To investigate further the underlying mechanism of why Z-VAD fails to prevent RGC death after ON injury, propidium iodide (PI) was used to detect necrotic cells in GCL (Unal Cevik et al., (2010)). At one day after ON injury, Z-VAD administration increased the number of PI positive cells compared with vehicle (FIGS. 4A and 4B).

[3] = system: Apoptosis inducing factor (AIF); assay: AIF immunostaining with TUNEL after ON injury (nuclear translocation); conditions: one day after ON injury
Description: Apoptosis inducing factor (AIF) is a mitochondrial flavoprotein which is involved in initiating caspase-independent apoptosis. After loss of mitochondrial membrane potential, AIF translocates into the nucleus, induces DNA fragmentation and peripheral chromatin condensation (Susin et al., (1999), Susin et al., (2000), Candé et al., (2004)). To analyze whether mitochondrial release of AIF is associated with RGC death after ON injury, immunostaining for AIF was performed together with TUNEL assay. One day after ON injury, there was a prominent nuclear translocation of AIF, which was not affected by pan-caspase inhibition (FIGS. 7A and 7B).

ROS = assay: Protein carbonyl contents in retina after ON injury (ELISA); conditions: one day after ON injury; compared with vehicle group
Description: It has been reported that RIP kinases control ROS generation during programmed necrosis (Cho et. al., (2009) CELL 137:1112-1123, Zhang et al., (2009) SCIENCE 325:332-336)). To investigate whether ROS play a roll in oxidative retinal damage after ON injury, protein level of carbonyl contents was analyzed using ELISA using the OxiSelect™ Protein Carbonyl ELISA Kit (Cell Biolabs, San Diego, Calif.).
To investigate the role of autophagy in RGC death after ON injury, we examined the effect of 3-methyladenine (3-MA) on RGCs death after ON injury. 3-MA inhibits autophagosome formation (Seglen and Gordon, (1982) PROC NATL ACAD SCI USA 79:1889-1892)). One day after ON injury, TUNEL assay was performed. […] In addition, the number of Brn3b positive cells and IPL thickness were also analyzed. […] To investigate whether ROS play a role in oxidative retinal damage after ON injury, protein level of carbonyl contents was analyzed using an ELISA kit (Cell Biolabs, San Diego, Calif.) according to the manufacturer's instructions. One day after ON injury, carbonyl contents decreased in the 3-MA treated group compared with untreated control (FIG. 10F).

SMILES: COC(=O)CC(NC(=O)C(C)NC(=O)C(NC(=O)OCc1ccccc1)C(C)C)C(=O)CF (stereo not drawn) [Z-VAD, Benzyloxycarbonyl-Val-Ala-Asp(OMe)-fluoromethylketone] (Cbz-Val-Ala-Asp(OMe)-CH2F; configuration not given here)
- increase of TNF-α levels after ON injury (TNF-α): did not affect
- number of Brn3b positive cells [1]: further enhanced
- number of PI positive cells [2]: increased
- nuclear translocation of AIF [3]: not affected
- carbonyl contents (protein level, ELISA) (ROS): dramatically increased

— patent publication US10617735B2, “Methods and compositions for preserving retinal ganglion cells” (Massachusetts Eye and Ear Infirmary, priority 2010, dated 2020)
